Measured values taken from US8642559B2, “C-terminal domain truncation of mGluR1α by calpain and uses thereof” (priority 2006, dated 2014).
“Also recorded” adds a separate entry of the source.

What was measured:
Format in all cases: cell-based
cortical neurons = assay: Glutamate toxicity in transfected GFP-expressing cortical neurons (EthD-1 staining); conditions: 25 μM glutamate 1 hour, 12 hours later
Description: In FIGS. 8a and b, cortical neurons were co-transfected with green fluorescent protein (GFP) and vector DNA, myc-mGluR1α or myc-mGluR1α936Δ, respectively. […] Twelve hours later, neurons were stained with EthD-1 to label dead cells. Arrowheads in FIG. 8a indicate EthD-1 positive GFP-expressing neurons. * p<0.05. FIGS. 8c and d are representative photos and bar graphs showing differential roles of endogenous mGluR1 in neuronal toxicity before and after NMDA-induced truncation. Cortical neurons were treated as indicated and were stained with EthD-1 (for dead cells) and calcein AM (for live cells) 24 hours later. * p<0.001.
The downstream signaling pathways of mGluR1α, including release of intracellular calcium and activation of P13K-Akt, are both important for excitotoxicity. Therefore, we postulated that NMDA-induced truncation would alter the role of mGluR1α in neuronal toxicity. To test this possibility, we first co-transfected neurons with GFP and a control vector, wild-type mGluR1α or truncated mGluR1α respectively. […] Twelve hours after treatment, neurons were stained with 0.5 μM EthD-1 for 10 minutes to label dead cells. The numbers of GFP-expressing neurons and EthD-1 positive GFP-expressing neurons on each 18×18 mm coverslip were counted to calculate the percentage of dead cells. […] In neurons co-transfected with control vector, 35% (n=9, on average, there were 405 GFP-expressing neurons counted on each coverslip) of GFP-expressing neurons were positive for EthD-1 staining and therefore had died. In neurons co-transfected with wild-type mGluR1α, only 15% of neurons (n=8, in average, there were 428 GFP-expressing neurons counted on each coverslip) were EthD-1 positive, an effect that was statistically different from that in neurons co-transfected with control vector (p<0.01, Student's t-test). […] Therefore it was difficult to determine the exact location of cell bodies and the live/dead ratios in those neurons.

mGluR5 = mGluR5 levels in cortical neurons after glutamate (immunoblot); conditions: 100 μM glutamate, 60 min
Description: (§1) Total cell lysates were separated by SDS-PAGE and probed with an antibody against the carboxyl terminus (residue 1142-1160) of mGluR1α. […] Total cell lysates were probed with an anti-myc antibody. […] Total cell lysates were probed with antibodies against mGluR5, G1uR2/3 and VGluT1 respectively.

mGluR1α = assay: Glutamate/NMDA-induced C-terminal truncation of mGluR1α in cultured cortical neurons (immunoblot); conditions: 100 μM glutamate
Description: as §1
Total cell lysate was collected immediately after treatment and subjected to SDS-PAGE and immunoblotting with an antibody against the carboxyl terminus (residues 1142-1160) of mGluR1α (FIG. 2A). […] Neurons were transfected with a calcium phosphate precipitation method modified for high transfection rate (Jian et al., Gene Ther 11:1301-1311, 2004).
Cortical neurons were treated with NMDA at the indicated concentrations for 1 h or treated with NMDA (10 μM) for the indicated times. Total cell lysates were separated by SDS-PAGE and probed with antibodies against mGluR1α1142-1160, Results were normalized over control values and are means±s.e.m. of 4 experiments.
To determine whether activation of mGluR1α itself was required for the truncation, two distinct mGluR1α antagonists were applied.
To further characterize NMDA-induced mGluR1α truncation, the concentration- and time-dependencies of the effects of NMDA were studied. Cortical neurons were first incubated with different concentrations of NMDA for a fixed period of time (1 hour) (FIG. 3F). […] In a following experiment, cortical neurons were incubated with 10 μM NMDA for different durations ranging from 1 to 60 min (FIG. 3G).
Cortical neurons were treated with NMDA (10 μM, 1 h). Total cell lysates were separated by SDS-PAGE and probed with antibodies against spectrin and mGluR1α1142-1160, respectively. Only the degradation bands of spectrin (spectrin DB, at ˜145 KD) are shown. […] In FIG. 4C, purified myc-mGluR1α was digested with μ-calpain at the indicated concentrations (U/ml) for 30 min. The digested material was processed for SDS-PAGE and subjected to silver staining or immunoblots with anti-myc or anti-mGluR1α1142-1160 antibodies. […] The 1st lane was the myc-mGluR1α immunoprecipitated from 293 cells; the 2nd and 3rd lanes were immunoprecipitated myc-mGluR1α digested with indicated concentration of calpain. […] FIG. 4F is the alignment of mGluR1 (902-941) and mGluR5 (889-927) surrounding the calpain cleavage site.
In this set of experiments, we determined which protease(s) mediated NMDA-induced truncation of mGluR1α. […] Cortical neurons were pretreated with a calpain inhibitor, the cell-permeable calpain-inhibitor III, or the caspase inhibitor cpm-VAD-CHO for 2 hours and then incubated in the absence or presence of 100 µM NMDA for 1 hour. […] To further confirm calpain activation by NMDA under our experimental conditions, we determined the levels of the calpain-specific spectrin degradation fragments.

[1] = system: vesicular glutamate transporter (vGluT1); assay: vGluT1 levels in cortical neurons after glutamate (immunoblot); conditions: 100 μM glutamate, 60 min
Description: as §1
To test for the specificity of glutamate-mediated truncation of mGluR1α, immunoblots were also probed with an antibody against mGluR5, another member of group I mGluRs, which shares a high similarity with mGluR1α.

## N[C@@H](CCC(=O)O)C(=O)O [glutamate]
Cortical neurons; co-transfected with control vector
  EthD-1 positive GFP-expressing neurons (dead cells): 35%
Cortical neurons; co-transfected with mGluR1α936Δ
  EthD-1 positive GFP-expressing neurons (dead cells): 59%
Cortical neurons; co-transfected with wild-type mGluR1α
  EthD-1 positive GFP-expressing neurons (dead cells): 15%
mGluR5
  levels of mGluR5: not significantly altered
mGluR1α
  time at which mGluR1α truncation was apparent after glutamate treatment: 1 min
mGluR1α; 60 min (1 hour)
  levels of native mGluR1α: almost completely disappeared; also recorded: significant reduction
[1]
  changes to vGluT1: no significant changes
